Earlier results as cited in patent USRE38506E1, “Potent inducers of terminal differentiation and methods of use thereof” (Sloan-Kettering Institute for Cancer Research, priority 1991, dated 2004).

Test system: MELC 745A-DS19 cells
Details: without continuing drug exposure; cited from earlier work

For CC(=O)NCCCCCCNC(C)=O [HMBA, N,N′-hexamethylene bisacetamide], the “minimum duration of continuous exposure required to induce differentiation in a substantial portion (>20%) of the population” value is listed as “about 36 hours”.
